Data reported in paper PMC11312515, “Biochemical and Structural Characterization of a Novel Psychrophilic Laccase (Multicopper Oxidase) Discovered from Oenococcus oeni 229 (ENOLAB 4002)” (International Journal of Molecular Sciences, 2024).

T1: LcOe 229 (Oenococcus oeni, UniProt Q04HQ8)
T1 construct: gene OEOE_0009
T1 sequence (Q04HQ8 1-488): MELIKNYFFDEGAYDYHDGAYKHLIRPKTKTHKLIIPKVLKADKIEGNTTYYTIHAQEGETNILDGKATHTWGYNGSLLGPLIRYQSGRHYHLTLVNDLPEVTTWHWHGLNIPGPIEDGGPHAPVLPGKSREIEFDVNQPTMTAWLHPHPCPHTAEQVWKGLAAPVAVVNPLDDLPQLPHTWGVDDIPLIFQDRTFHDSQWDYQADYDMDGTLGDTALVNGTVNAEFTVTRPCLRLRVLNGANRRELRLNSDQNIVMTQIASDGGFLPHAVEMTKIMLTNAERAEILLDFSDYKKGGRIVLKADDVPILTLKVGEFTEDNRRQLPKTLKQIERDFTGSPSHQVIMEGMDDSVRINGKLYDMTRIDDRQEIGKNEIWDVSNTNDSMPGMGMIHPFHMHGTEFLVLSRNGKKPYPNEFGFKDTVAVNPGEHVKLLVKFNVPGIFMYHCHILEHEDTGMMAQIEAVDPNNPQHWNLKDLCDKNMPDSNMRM


Legend:
LcOe 229 [1] = target: T1, LcOe 229; settings: read-out: % residual activity at 1 mM
LcOe 229 [2] = target: T1, LcOe 229; type: biochemical; settings: 2 mM ABTS, 0.1 mM CuSO4, McIlvaine buffer pH 2.5
[3] = substrate: COc1cccc(OC)c1O; experiment: oxidation followed at OD468, microplate, initial rates; type: biochemical, Oenococcus oeni; settings: McIlvaine buffer pH 8, 24 °C, hyperbolic

Molecule | remaining activity at 1000 µM (LcOe 229 [1]) [%] | % residual activity at 1 mM (LcOe 229 [2]) | also measured
c1ccc(-c2ccccn2)nc1 [2,2′-bipyridyl] | 94 | – | –
CCN=C=NCCCN(C)C [EDC] | – | observed with ZnCl2, EDTA, pargyline, EDC, deprenyl, clorgyline, and NaCl | –
C#CCN(C)CCCOc1ccc(Cl)cc1Cl [clorgyline] | – | observed with ZnCl2, EDTA, pargyline, EDC, deprenyl, clorgyline, and NaCl | –
NC1CC1 [cyclopropylamine] | 77 | – | –
C#CCN(C)C(C)Cc1ccccc1 (stereo not drawn) [deprenyl] | – | observed with ZnCl2, EDTA, pargyline, EDC, deprenyl, clorgyline, and NaCl | –
C#CCN(C)Cc1ccccc1 [pargyline] | – | observed with ZnCl2, EDTA, pargyline, EDC, deprenyl, clorgyline, and NaCl | –
C#CCN[C@@H]1CCc2ccccc21 [rasagiline] | 65 | – | –
NNC(N)=O [semicarbazide] | < 15 | – | –
LcOe 229 (Oenococcus oeni PSU-1) (protein, full length, 488 residues, 55544 Da, in pET-28a(+) NheI/BamHI, N-terminal His tag (thrombin-cleavable; cleavage told for crystallography), E. coli BL21(DE3)/pGro7; Ni-NTA; monomer; PCR fragment given as 1641 bp) MELIKNYFFDEGAYDYHDGAYKHLIRPKTKTHKLIIPKVLKADKIEGNTTYYTIHAQEGETNILDGKATHTWGYNGSLLGPLIRYQSGRHYHLTLVNDLPEVTTWHWHGLNIPGPIEDGGPHAPVLPGKSREIEFDVNQPTMTAWLHPHPCPHTAEQVWKGLAAPVAVVNPLDDLPQLPHTWGVDDIPLIFQDRTFHDSQWDYQADYDMDGTLGDTALVNGTVNAEFTVTRPCLRLRVLNGANRRELRLNSDQNIVMTQIASDGGFLPHAVEMTKIMLTNAERAEILLDFSDYKKGGRIVLKADDVPILTLKVGEFTEDNRRQLPKTLKQIERDFTGSPSHQVIMEGMDDSVRINGKLYDMTRIDDRQEIGKNEIWDVSNTNDSMPGMGMIHPFHMHGTEFLVLSRNGKKPYPNEFGFKDTVAVNPGEHVKLLVKFNVPGIFMYHCHILEHEDTGMMAQIEAVDPNNPQHWNLKDLCDKNMPDSNMRM | – | – | Km [3]: 0.73 (±0.17) mM; Vmax [3]: 0.01 µmol/min/mg; kcat [3]: 0.01 s⁻¹; kcat/Km [3]: 10 M⁻¹ s⁻¹
